Assay results reported in patent US10092537B2, “Use for PAI-1 inhibitor” (RENASCIENCE CO., LTD., priority 2013, dated 2018).

Tests used:
[1] = system: human hematopoietic stem cells; experiment: Transplantation of human CD34+ umbilical cord blood cells into irradiated severely immunocompromised mice (Experimental Example 2); assay type: in vivo; conditions: 100 mg/kg oral, 6 doses, 7 days after cell transplantation
Method: Severely immunocompromised mice (recipient) were exposed to radiation (2Gy), and two days later, human CD34^+ cells isolated from human umbilical cord blood were transplanted into the mice. Concurrently with the transplantation, compound a was orally administered into the mice as a test compound (dosage: 100 mg/kg), and the compound was further administered for 5 consecutive days; i.e., 6 doses in total (see FIG. 2A). 2 days after the last administration (7 days after the cell transplantation), the bone-marrow cells were collected, and the abundance ratio of human hematopoietic cells was measured with a flow cytometric analyzer, whereas the cKitL concentration (μg/mL) and VEGF concentration (μg/mL) in the plasma were also measured.

[2] = system: hematopoietic stem cells; experiment: Cell cycle (Ki-67, BrdU) and apoptosis (Annexin V) of bone-marrow cells 1 week after bone-marrow transplantation (Experimental Example 9); assay type: in vivo, mice
Method: In accordance with Experimental Example 7 (1), bone-marrow transplantation was conducted, and after the transplantation, physiological saline (control group), tPA (tPA-administered group), or compound a (compound a-administered group) was administered.
1 week after bone-marrow transplantation, the bone marrow was collected, and Ki-67 protein, which is a cell division marker, was immunostained with anti-Ki-67-FITC antibody (BD Bioscience) to analyze the cells in the cell-division cycle by FACSCalibur.
Subsequently, the number of Ki-67 positive cells in the cells of LSK fraction was examined to confirm that the proliferation of hematopoietic stem cells is promoted by compound a.
In addition, to more accurately detect the cells that moved to the S phase, 5-bromo-2-deoxyuridine (BrdU)-FITC (BD Pharmingen) was administered to the control group, tPA group, and compound a-administered group 1 week after bone-marrow transplantation, 3 hours before the collection of bone marrow. 6 mice were used for each group.
Because BrdU is a thymine derivative, BrdU, substituting for thymine, is incorporated into genomic DNA or the like during DNA replication. BrdU more specifically reflects the S phase than Ki-67 protein.
1 week after bone-marrow transplantation, bone marrow was collected from the control group, tPA group, and compound a-administered group (6 mice for each group), and Annexin V, which appears specifically in apoptosis, was detected with anti-Annexin V antibody immunostaining.

[3] = system: hematopoietic stem cells; experiment: Hematopoietic recovery after bone-marrow transplantation, compounds a, b, c (Experimental Example 5); assay type: in vivo, mice; conditions: for frequency of hematopoietic stem cells / self-renewal capacity of hematopoietic stem cells: compound a 100 mg/kg oral 4 days, compounds b and c 10 mg/kg oral 6 consecutive days after bone-marrow transplantation
Method: The procedures of Experimental Examples 4 (1) and 4 (4) were repeated using compounds b and c, instead of compound a, as a test compound.
Compound a was orally administered in an amount of 100 mg/kg for 4 consecutive days after bone-marrow transplantation. Compounds b and c were orally administered in an amount of 10 mg/kg for 6 consecutive days after bone-marrow transplantation.
Bone marrow was collected 1 and 3 weeks after bone-marrow transplantation. The total number of the whole bone-marrow cells (FIG. 9E), the proportion (%) of LSK-CD34 negative cells in the whole bone marrow (FIG. 9A), the total number of LSK-CD34 negative cells in the whole bone marrow (FIG. 9B), the proportion (%) of Lin-SLAM cells in the whole bone marrow (FIG. 9C), and the total number of Lin-SLAM cells in the whole bone marrow (FIG. 9D) were measured. The results are shown in the above-stated figures.

[4] = system: HER2-positive human ovarian cancer cell lines SKOV3; experiment: SKOV3 ovarian cancer subcutaneous tumor, Herceptin and compound c (Experimental Example 18); assay type: in vivo, BALB/c-nude mice; conditions: Herceptin 5 mg/kg i.p. once + compound c 10 mg/kg/day oral (day 0-4, day 7-11); 45 days after administration
Method: HER2-positive human ovarian cancer cell lines SKOV3 (5×10^6) were subcutaneously inoculated into BALB/c-nude mice. For better cell engraftment, the mice were intraperitoneally administered 25 μl of anti-Asialo GM1 antibody (Wako Pure Chemical Industries, Ltd., Code No. 014-09801) 2 days and 1 day before the cancer cell inoculation. […] The group to which Herceptin and compound c were administered in combination is referred to as “compound c-combined group”, and the group to which Herceptin and physiological saline were administered in combination is referred to as “compound c-non-combined group.” The group to which only physiological saline was administered without Herceptin is referred to as “placebo group.”

[5] = system: CML cells; experiment: Chronic myelogenous leukemia model mice, CML cells engrafted onto bone marrow by FACS (Experimental Example 15); assay type: in vivo
Method: Chronic myelogenous leukemia model mice prepared in accordance with the procedure of Experimental Example 11 (1) were divided into 3 groups (each group: n=15) and administered respective test drugs.
Group 1: placebo group (physiological saline was administered via gavage)
Group 2: imatinib group (imatinib [150 mg/kg/day] was administered via gavage)
Group 3: imatinib+compound c group (imatinib [150 mg/kg/day] and compound c [10 mg/kg/day] were administered via gavage)
8 days (day 8) after the day on which CML cells were intravenously inoculated (day 0), administration of test drugs to the groups was started. The placebo group and the imatinib group were administered the respective test drugs once a day from day 8 to day 14 (7 doses in total). The imatinib+compound c group was administered imatinib once a day from day 8 to day 14 (7 doses in total), and also administered compound c once a day from day 8 to day 14 (7 doses in total).
CML cells engrafted onto bone marrow were analyzed by FACS immediately before the administration of a test drug (day 8; “immediately before antitumor agent treatment” in FIG. 19), immediately after the completion of administration of a test drug (day 14; “immediately after antitumor agent treatment” in FIG. 19), and day 28 from the start of administration of a test drug (day 36; “after 28 days” in FIG. 19). […] About 50% leukemia cells were grafted on the bone marrow immediately before administration of a test drug (day 8; “immediately before antitumor agent treatment” in FIG. 19). After the tumor-bearing mice were administered a test drug 7 times (day 14), the proportion of CML cells was analyzed. […] All of the mice in the group administered physiological saline died.

[6] = target: human PAI-1 (Homo sapiens, UniProt P05121); experiment: Measurement of PAI-1 inhibitory activity of compound group 1 (t-PA, Spectrozyme t-PA chromogenic substrate); conditions: read-out: PAI-1 activity %
[7] = compound a 100 mg/kg oral, 4 consecutive days, 1 and 3 weeks after bone-marrow transplantation, versus vehicle

human PAI-1, sequence (P05121 24-402): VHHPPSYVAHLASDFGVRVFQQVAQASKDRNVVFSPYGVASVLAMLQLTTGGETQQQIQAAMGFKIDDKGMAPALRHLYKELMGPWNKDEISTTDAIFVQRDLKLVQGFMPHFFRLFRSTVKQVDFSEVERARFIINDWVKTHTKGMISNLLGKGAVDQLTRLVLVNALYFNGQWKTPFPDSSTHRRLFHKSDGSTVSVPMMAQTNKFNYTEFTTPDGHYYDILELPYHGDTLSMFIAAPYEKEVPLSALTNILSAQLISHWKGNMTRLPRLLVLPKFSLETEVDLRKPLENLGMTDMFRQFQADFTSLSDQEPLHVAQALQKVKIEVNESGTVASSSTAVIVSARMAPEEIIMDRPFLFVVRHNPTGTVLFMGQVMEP

SMILES | absolute number of human hematopoietic cells in the bone marrow, versus control group ([1]; control PBS) | chimerism of human hematopoietic cells (CD45+) in the bone marrow, versus control group ([1]; control PBS) | VEGF in the plasma ([1]; versus control) | cKitL in the plasma ([1]; versus control) | proportion of CD34+ cell (human HSC) contained in human hematopoietic cells ([1]; versus control) | proportion of cells that were induced apoptosis (Annexin V) ([2]; compared with control group) | cells in the S phase (BrdU incorporated into LSK cells) ([2]; control group 18.1%) | Ki-67 positive, cells classified into the LSK fraction taken as 100% ([2]; control group 43.3%) | cell count of cells at the S-G2-M phase (Ki-67) in bone-marrow mononucleic cells ([2]; control group 44.2%) | cell count of cells at the G0/G1 phase (Ki-67) in bone-marrow mononucleic cells ([2]; control group 55.8%) | frequency of hematopoietic stem cells [3] | self-renewal capacity of hematopoietic stem cells [3] | plg level, tPA level, cKitL level, total MMP-9 level in the plasma and white blood cell count in the peripheral blood [3, 7] | proportion and total number of LSK-CD34 negative cells and Lin-SLAM cells in the whole bone marrow [3, 7] | tumor volume versus other groups [4] | CML (leukemia) cells in the bone marrow ([5]; imatinib 150 mg/kg/day + compound c 10 mg/kg/day, day 8 to day 14, analysed day 36) | proportion of CML cells in the bone marrow ([5]; imatinib + compound c, day 14, after 7 doses, about 50% before treatment) | activity at 2.5 µM [6] | activity at 10 µM [6]
O=C(COCC(=O)N1CCN(C(c2ccccc2)c2ccccc2)CC1)Nc1ccc(Cl)cc1C(=O)[O-].[Na+] [Example 30 (compound group 2), 2-(2-(2-(4-benzhydrylpiperazin-1-yl)-2-oxoethoxy)acetamido)-5-chlorobenzoic acid sodium salt] | 3 to 10 times higher | 2 to 9 times higher | increased | increased | increased | decrease | 21.4% | 63.9% | 64.2% | 35.8% | increase | enhance | significantly higher | significantly higher | – | – | – | – | –
O=C(Nc1ccc(Cl)cc1C(=O)O)c1cccc(-c2ccccc2)c1 [Example 4, 2-[(biphenyl-3-ylcarbonyl)amino]-5-chlorobenzoic acid] | – | – | – | – | – | – | – | – | – | – | increase | enhance | – | – | significantly smaller | 1.8% | marked decrease | 62.1% | 0.6%
